From PMC3914206

Key:
Assay type in all cases: binding
Set-up in all cases: KINOMEscan: ABL1(F317L)-phosphorylated / KINOMEscan: ABL1(H396P)-nonphosphorylated / KINOMEscan: ABL1(H396P)-phosphorylated / KINOMEscan: ABL1(M351T)-phosphorylated / KINOMEscan: ABL1(T315I)-phosphorylated / KINOMEscan: ABL1-nonphosphorylated / KINOMEscan: ABL1-phosphorylated / KINOMEscan: ACVR2A / KINOMEscan: ACVR2B / KINOMEscan: ADCK3 / KINOMEscan: ADCK4 / KINOMEscan: AKT1 / KINOMEscan: AKT3 / KINOMEscan: ALK / KINOMEscan: ARK5 / KINOMEscan: AURKA / KINOMEscan: AURKC / KINOMEscan: BIKE / KINOMEscan: BMPR1A / KINOMEscan: BMPR1B / KINOMEscan: BMX / KINOMEscan: BRK / KINOMEscan: BRSK1 / KINOMEscan: BRSK2 / KINOMEscan: CAMK1 / KINOMEscan: CAMK1D / KINOMEscan: CAMK1G / KINOMEscan: CAMK2A / KINOMEscan: CAMK2B / KINOMEscan: AAK1 / KINOMEscan: CAMK2D / KINOMEscan: CAMK2G / KINOMEscan: ABL1(F317I)-nonphosphorylated / KINOMEscan: ABL1(F317I)-phosphorylated / KINOMEscan: ABL1(F317L)-nonphosphorylated: unit: % Ctrl
Conditions in all cases: Compound Concentration 10 µM
[1] = biological target: T1, panel of 442 kinases (Homo sapiens, UniProt Q9Y243)
T1 construct: purchased KINOMEscan
Excerpt: (§1) We assessed the selectivity of members of this scaffold using the KINOMEscan methodology across a near comprehensive panel of 442 kinases [[18,27]].

[2] = biological target: T2, panel of 442 kinases (Homo sapiens, UniProt P29322)
T2 construct: purchased KINOMEscan
T2 sequence (P29322 28-1005): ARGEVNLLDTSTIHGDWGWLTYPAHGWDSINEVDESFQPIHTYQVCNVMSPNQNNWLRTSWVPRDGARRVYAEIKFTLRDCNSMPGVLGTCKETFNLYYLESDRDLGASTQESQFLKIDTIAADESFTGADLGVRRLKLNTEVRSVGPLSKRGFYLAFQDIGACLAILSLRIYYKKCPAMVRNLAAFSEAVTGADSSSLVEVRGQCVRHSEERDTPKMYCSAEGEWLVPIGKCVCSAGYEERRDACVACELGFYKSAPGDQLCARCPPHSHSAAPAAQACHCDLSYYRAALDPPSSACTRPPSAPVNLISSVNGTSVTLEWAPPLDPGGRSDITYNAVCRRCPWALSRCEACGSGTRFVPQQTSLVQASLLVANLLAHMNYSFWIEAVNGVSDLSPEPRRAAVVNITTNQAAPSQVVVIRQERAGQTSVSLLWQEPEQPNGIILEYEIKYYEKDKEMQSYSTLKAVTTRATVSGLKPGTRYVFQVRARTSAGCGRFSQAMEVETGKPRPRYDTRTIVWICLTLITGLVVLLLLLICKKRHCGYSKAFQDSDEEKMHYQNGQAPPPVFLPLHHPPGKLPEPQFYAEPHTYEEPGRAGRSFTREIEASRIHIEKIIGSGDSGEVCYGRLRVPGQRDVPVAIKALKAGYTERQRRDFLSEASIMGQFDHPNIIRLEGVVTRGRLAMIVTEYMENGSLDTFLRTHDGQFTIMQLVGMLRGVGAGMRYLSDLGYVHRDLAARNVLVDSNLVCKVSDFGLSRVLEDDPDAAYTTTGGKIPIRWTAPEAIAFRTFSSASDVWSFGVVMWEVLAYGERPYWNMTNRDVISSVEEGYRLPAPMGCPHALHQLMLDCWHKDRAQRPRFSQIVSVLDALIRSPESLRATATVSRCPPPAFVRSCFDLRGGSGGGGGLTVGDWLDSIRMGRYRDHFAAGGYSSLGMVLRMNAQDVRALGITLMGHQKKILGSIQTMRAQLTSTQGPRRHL
Excerpt: as §1

[3] = biological target: T3, panel of 442 kinases (Homo sapiens, UniProt Q13882)
T3 construct: purchased KINOMEscan
Excerpt: as §1

T1 sequence (Q9Y243 whole entry): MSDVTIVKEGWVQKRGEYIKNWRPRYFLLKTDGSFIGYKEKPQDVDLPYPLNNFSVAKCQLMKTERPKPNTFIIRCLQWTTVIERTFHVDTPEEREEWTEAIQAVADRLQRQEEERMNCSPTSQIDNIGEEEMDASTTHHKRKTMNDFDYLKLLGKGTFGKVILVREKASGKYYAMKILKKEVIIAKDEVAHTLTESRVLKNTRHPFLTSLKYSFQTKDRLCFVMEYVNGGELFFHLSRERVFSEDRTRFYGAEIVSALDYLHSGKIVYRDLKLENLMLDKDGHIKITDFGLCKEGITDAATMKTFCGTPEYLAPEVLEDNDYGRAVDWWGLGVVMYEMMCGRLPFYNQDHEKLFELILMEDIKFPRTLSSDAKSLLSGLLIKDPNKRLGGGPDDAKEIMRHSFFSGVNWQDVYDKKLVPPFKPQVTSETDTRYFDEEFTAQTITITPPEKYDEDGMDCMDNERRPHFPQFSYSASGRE
T3 sequence (Q13882 whole entry): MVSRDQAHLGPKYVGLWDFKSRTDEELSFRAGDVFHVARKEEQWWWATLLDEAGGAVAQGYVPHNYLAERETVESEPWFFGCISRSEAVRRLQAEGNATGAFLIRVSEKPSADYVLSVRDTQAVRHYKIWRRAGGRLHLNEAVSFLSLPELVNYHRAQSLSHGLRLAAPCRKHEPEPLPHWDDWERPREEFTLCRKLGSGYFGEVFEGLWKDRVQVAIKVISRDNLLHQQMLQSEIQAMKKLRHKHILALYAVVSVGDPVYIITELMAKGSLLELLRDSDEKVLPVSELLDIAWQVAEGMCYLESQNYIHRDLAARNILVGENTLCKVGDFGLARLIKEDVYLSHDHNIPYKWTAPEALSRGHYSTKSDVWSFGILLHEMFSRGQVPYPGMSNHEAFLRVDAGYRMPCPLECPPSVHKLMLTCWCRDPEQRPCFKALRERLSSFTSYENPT

SMILES	KINOMEscan: AKT3 [1]	KINOMEscan: EPHA8 [2]	KINOMEscan: BRK [3]
COc1cc(C(=O)N2CCC(N3CCN(C)CC3)CC2)ccc1Nc1ncc2c(n1)N(C1CCCC1)c1ccccc1C(=O)N2C [Compound 25, 11-cyclopentyl-2-((2-methoxy-4-(4-(4-methylpiperazin-1-yl)piperidine-1-carbonyl)phenyl)amino)-5-methyl-5H-benzo[e]pyrimido[5,4-b][1,4]diazepin-6(11H)-one]	100	97	29
COc1cc(C(=O)N2CCC(N3CCN(C)CC3)CC2)ccc1Nc1ncc2c(n1)N1CCc3cccc(c31)C(=O)N2C [Compound 24]		72	54
COc1cc(C(=O)N2CCC(N3CCN(C)CC3)CC2)ccc1Nc1ncc2c(n1)N(C)c1ccccc1C(=O)N2C [15 (LRRK2-IN-1)]	100	80	58
CCOc1cc(C(=O)N2CCC(N3CCN(C)CC3)CC2)ccc1Nc1ncc2c(n1)N(C1CCCC1)c1ccccc1C(=O)N2C [Compound 26]	84	100	62
